Laboratory results published in US8741892B2, “Compounds” (Boehringer Ingelheim International GmbH, priority 2011, dated 2014).

Biological target: T1, human recombinant mGluR5 (Homo sapiens, UniProt P41594)
T1 construct: expressed in transfected cells; host or cells: HEK 293
Assay: positive modulation of mGluR5, calcium based FLIPR assay
Settings: HEK 293 cell line expressing human recombinant mGluR5; EC50 of the modulation from peak Ca fluorescence signal after glutamate at approx. 5% basal stimulation
In short: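 HEK 293 cells expressing human recombinant mGluR5, Calcium-4 dye-loaded in Ringer solution pH 7.4. Compound (1% DMSO final) preincubated 5 min, then glutamate at ~5% of maximal effect added; peak Ca2+ fluorescence gives EC50 by nonlinear regression, normalized to DMSO (100%) and 10 μM CDPPB (200%) controls.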

T1 sequence (P41594 21-1212): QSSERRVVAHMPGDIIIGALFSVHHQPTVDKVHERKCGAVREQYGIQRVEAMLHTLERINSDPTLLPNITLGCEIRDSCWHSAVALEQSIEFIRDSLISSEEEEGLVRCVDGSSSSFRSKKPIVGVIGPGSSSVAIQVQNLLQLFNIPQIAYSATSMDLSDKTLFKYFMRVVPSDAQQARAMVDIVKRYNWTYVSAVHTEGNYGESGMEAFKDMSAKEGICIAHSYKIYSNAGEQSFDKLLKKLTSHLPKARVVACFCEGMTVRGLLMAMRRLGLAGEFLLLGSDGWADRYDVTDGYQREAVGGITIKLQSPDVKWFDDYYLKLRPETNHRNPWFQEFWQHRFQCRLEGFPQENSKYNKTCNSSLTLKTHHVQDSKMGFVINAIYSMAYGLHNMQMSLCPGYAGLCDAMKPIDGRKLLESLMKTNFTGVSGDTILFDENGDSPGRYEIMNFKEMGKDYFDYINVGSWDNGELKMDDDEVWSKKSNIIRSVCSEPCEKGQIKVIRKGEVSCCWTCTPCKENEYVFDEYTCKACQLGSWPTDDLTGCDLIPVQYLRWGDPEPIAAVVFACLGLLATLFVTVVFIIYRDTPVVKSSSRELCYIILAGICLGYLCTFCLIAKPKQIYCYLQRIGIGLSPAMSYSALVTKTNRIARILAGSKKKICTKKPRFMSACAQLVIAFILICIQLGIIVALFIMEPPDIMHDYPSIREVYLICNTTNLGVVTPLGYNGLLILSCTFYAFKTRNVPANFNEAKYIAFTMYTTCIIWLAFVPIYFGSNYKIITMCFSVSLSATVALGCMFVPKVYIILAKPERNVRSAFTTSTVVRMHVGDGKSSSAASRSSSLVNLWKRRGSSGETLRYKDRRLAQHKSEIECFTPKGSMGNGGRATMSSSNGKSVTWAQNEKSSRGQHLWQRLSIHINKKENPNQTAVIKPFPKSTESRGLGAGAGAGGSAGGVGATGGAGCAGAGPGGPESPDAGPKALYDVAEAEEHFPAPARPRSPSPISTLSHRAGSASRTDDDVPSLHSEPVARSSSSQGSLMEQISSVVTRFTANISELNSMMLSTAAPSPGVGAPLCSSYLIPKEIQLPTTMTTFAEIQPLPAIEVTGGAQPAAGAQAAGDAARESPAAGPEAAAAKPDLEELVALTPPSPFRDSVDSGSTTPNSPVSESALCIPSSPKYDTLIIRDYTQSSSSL

SMILES	EC50 [nM]
CCc1cc(-c2ccc(C)c(F)c2)nn1CC(=O)N1Cc2nc(C)oc2C1 [Example 7.02.245]	236
COc1ccc(-c2cc(-c3ccccc3)n(CC(=O)N3Cc4nc(C)oc4C3)n2)cc1C [Example 7.02.246]	62
CCCc1cc(-c2ccc(F)c(C)n2)nn1CC(=O)N1CCc2nc(C)sc2CC1 [Example 7.02.247]	172
CCCc1cc(-c2ccc(F)c(C)n2)nn1CC(=O)N1Cc2nc(C)sc2C1 [Example 7.02.248]	290
CCCc1cc(-c2ccc(F)c(C)n2)nn1CC(=O)N1Cc2nc(C)oc2C1 [Example 7.02.249]	184
Cc1nnc(N2CCN(C(=O)Cn3nc(-c4ccc(C)c(F)c4)cc3-c3ccccc3)CC2)o1 [Example 7.02.250]	65
Cc1nc2c(s1)CCN(C(=O)Cn1nc(-c3ccc(C)c(F)c3)cc1-c1ccccc1)CC2 [Example 7.02.251]	34
Cc1nc2c(s1)CN(C(=O)Cn1nc(-c3ccc(C)c(F)c3)cc1-c1ccccc1)C2 [Example 7.02.252]	69
Cc1nc2c(o1)CN(C(=O)Cn1nc(-c3ccc(C)c(F)c3)cc1-c1ccccc1)C2 [Example 7.02.253]	41
CCc1nc2c(o1)CN(C(=O)Cn1nc(-c3ccc(F)c(C)c3)cc1-c1ccccc1)C2 [Example 7.02.255]	7
CCc1nc2c(o1)CN(C(=O)Cn1nc(-c3ccc(F)c(C)c3)cc1CC)C2 [Example 7.02.256]	11
Cc1nc2c(o1)CN(C(=O)Cn1nc(-c3ccc(C(F)F)cc3)cc1-c1ccccc1)C2 [Example 7.02.257]	16
Cc1nnc(N2CCN(C(=O)Cn3nc(-c4ccc(C(F)F)cc4)cc3-c3ccccc3)CC2)o1 [Example 7.02.258]	31
Cc1nc2c(s1)CCN(C(=O)Cn1nc(-c3ccc(C(F)F)cc3)cc1-c1ccccc1)CC2 [Example 7.02.259]	10
Cc1nc2c(s1)CN(C(=O)Cn1nc(-c3ccc(C(F)F)cc3)cc1-c1ccccc1)C2 [Example 7.02.260]	26
